Where two headings read alike, the source gives them in different places.
Legend:
SW620 cells (K-Ras G12V) [1] = assay: Phospho-ERK1/2(THR202/TYR204) HTRF assay, SW620; format: cell-based; details: read-out: pERK, IC50, SW620
Procedure: (§1) Each of cells in culture medium was seeded in 96-well plates at density indicated in Table 4 and put in a cell incubator to incubate overnight. The next day, the culture medium was removed and the compound diluted in assay medium was added in each well. […] 10 μL of cell lysates from the 96-well plates were transferred to a 384-well plate (Greiner) containing 2.5 μL/well HTRF® pre-mixed antibodies (Cisbio 64AERPEH). The plate was incubated 4 hours at 25° C. and read HTRF signals on Tecan Spark multimode microplate reader. The data were analyzed using a 4-parameter logistic model to calculate IC50 values.

[2] = system: AsPC-1 cells (K-Ras G12D)
Procedure: (§2) Each of cells in culture medium was plated in TC-treated 96-well plates at a density indicated in Table 4 and incubated in a cell incubator overnight. The next day, each of compounds was diluted in culture medium and added to the plates. After 6 days incubation in cell incubator, the cell viability was detected by CellTiter-Glo® Cell Viability Assay kit (Promega).

SW620 cells (K-Ras G12V) [3] = system: SW620 cells (K-Ras G12V)
Procedure: as §2

GppNp-KRAS G12D [4] = biological target: T1, GppNp-KRAS G12D (Homo sapiens, UniProt P01116, G12D); assay: GTP-K-Ras and cRAF interaction assay, GppNp-KRAS G12D; details: read-out: Biochemical assays, IC50, KRAS G12D GppNp; GppNp-loaded K-Ras G12D, cRAF RBD interaction, HTRF
T1 sequence (P01116 1-169 isoform P01116-2 G12D): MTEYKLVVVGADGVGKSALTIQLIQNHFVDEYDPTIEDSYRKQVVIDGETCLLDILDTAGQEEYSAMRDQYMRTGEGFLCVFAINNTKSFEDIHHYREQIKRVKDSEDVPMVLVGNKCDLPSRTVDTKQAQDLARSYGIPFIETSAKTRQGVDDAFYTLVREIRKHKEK

GppNp-KRAS G12V [5] = biological target: T2, GppNp-KRAS G12V (Homo sapiens, UniProt P01116, G12V); assay: GTP-K-Ras and cRAF interaction assay, GppNp-KRAS G12V; details: read-out: Biochemical assays, IC50, KRAS G12V GppNp; GppNp-loaded K-Ras G12V, cRAF RBD interaction, HTRF
T2 sequence (P01116 1-169 isoform P01116-2 G12V): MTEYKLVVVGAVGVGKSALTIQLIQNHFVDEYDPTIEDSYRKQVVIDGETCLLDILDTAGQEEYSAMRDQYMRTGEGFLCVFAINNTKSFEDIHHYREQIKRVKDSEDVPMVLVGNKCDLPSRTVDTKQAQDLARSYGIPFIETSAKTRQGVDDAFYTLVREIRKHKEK

GDP-KRAS G12D [6] = biological target: T3, GDP-KRAS G12D (Homo sapiens, UniProt P01116, G12D); assay: SOS1 catalyzed nucleotide exchange assay, GDP-KRAS G12D; details: read-out: Biochemical assays, IC50, KRAS G12D GDP, GDP form K-Ras G12D, TR-FRET
T3 sequence (P01116 1-169 isoform P01116-2 G12D): as the sequence (P01116 1-169 isoform P01116-2 G12D) above

GDP-KRAS G12V [7] = biological target: T4, GDP-KRAS G12V (Homo sapiens, UniProt P01116, G12V); assay: SOS1 catalyzed nucleotide exchange assay, GDP-KRAS G12V; details: read-out: Biochemical assays, IC50, KRAS G12V GDP, GDP form K-Ras G12V, TR-FRET
T4 sequence (P01116 1-169 isoform P01116-2 G12V): as the sequence (P01116 1-169 isoform P01116-2 G12V) above

[8] = system: Capan-2 cells (K-Ras G12V)
Procedure: as §1

GDP-KRAS G12D [9] = biological target: T3, GDP-KRAS G12D; assay: biochemical
GDP-KRAS G12V [10] = biological target: T4, GDP-KRAS G12V; assay: biochemical
GppNp-KRAS G12D [11] = biological target: T1, GppNp-KRAS G12D; assay: biochemical
GppNp-KRAS G12V [12] = biological target: T2, GppNp-KRAS G12V; assay: biochemical

SMILES	IC50 [2]	IC50 (SW620 cells (K-Ras G12V) [3])	IC50 (GppNp-KRAS G12D [4])	IC50 (GppNp-KRAS G12V [5])	IC50 (GDP-KRAS G12D [6])	IC50 (GDP-KRAS G12V [7])	IC50 [8]	other results
C#Cc1c(F)ccc2cc(N)cc(-c3nc4c5c(nc(OCC67CCCN6CC(F)C7)nc5c3F)N3C(C)CCOCC3CO4)c12 (stereo not drawn) [Compound 38B]	61.3 nM	5.47 nM	174 nM	685 nM	1.05 nM	0.397 nM		IC50 (SW620 cells (K-Ras G12V) [1]; 2 hours incubation): 2.59 nM
C#Cc1c(F)ccc2cc(N)cc(-c3nc4c5c(nc(OC[C@@]67CCCN6C[C@H](F)C7)nc5c3F)N3CCCC[C@H](F)[C@H]3N4C)c12 [Compound 40A]	2.54 nM	2.71 nM					0.843 nM	IC50 (SW620 cells (K-Ras G12V) [1]; Homo sapiens, SW-620, 2 hours incubation): 0.328 nM; IC50 (GDP-KRAS G12D [9]): 0.875 nM; IC50 (GDP-KRAS G12V [10]): 0.912 nM; IC50 (GppNp-KRAS G12D [11]): 9.42 nM; IC50 (GppNp-KRAS G12V [12]): 36.4 nM
C#Cc1c(F)ccc2cc(N)cc(-c3nc4c5c(nc(OCC67CCCN6CC(F)C7)nc5c3F)N3CCCCC(F)C3N4C)c12 (stereo not drawn) [Compound 40B]			162 nM	705 nM	1.55 nM	7.01 nM		
C#Cc1c(F)ccc2cc(N)cc(-c3nc4c5c(nc(OCC67CCCN6CC(F)C7)nc5c3F)N3C(C(F)F)CCOCC3N4C)c12 (stereo not drawn) [Compound 52B]	111 nM	29.5 nM	302 nM	622 nM	3.25 nM	1.97 nM	2.01 nM	
C#Cc1c(F)ccc2cc(N)cc(-c3nc4c5c(nc(OC[C@@]67CCCN6C[C@H](F)C7)nc5c3F)N3[C@@H](C)[C@@H](F)COC[C@H]3N4C)c12 [Compound 57]	10 nM	3.22 nM					0.453 nM	
C#Cc1c(F)ccc2cc(N)cc(-c3nc4c5c(nc(OC[C@@]67CCCN6C[C@H](F)C7)nc5c3F)N3[C@@H](C)[C@H](F)COC[C@H]3N4C)c12 [Compound 58]	21.6 nM	1.2 nM					0.404 nM	
C#Cc1c(F)ccc2cc(N)cc(-c3nc4c5c(nc(OC[C@@]67CCCN6C[C@H](F)C7)nc5c3F)N3[C@@H](COC)CCOC[C@H]3N4C)c12 [Compound 59A]	61.8 nM	13.3 nM					0.316 nM	
C#Cc1c(F)ccc2cc(N)cc(-c3nc4c5c(nc(OC[C@@]67CCCN6C[C@H](F)C7)nc5c3F)N3CCCC[C@@H](Cl)[C@@H]3N4C)c12 [Compound 62A]			> 1000 nM	> 1000 nM	703 nM	389 nM		
C#Cc1c(F)ccc2cc(N)cc(-c3nc4c5c(nc(OC[C@@]67CCCN6C[C@H](F)C7)nc5c3F)N3CC(F)(F)CCC[C@@H]3N4C)c12 [Compound 106A]			> 1000 nM	> 1000 nM	630 nM	226 nM		
C#Cc1c(F)ccc2cc(N)cc(-c3nc4c5c(nc(OC[C@@]67CCCN6C[C@H](F)C7)nc5c3F)N3[C@H]5C[C@H]5COC[C@H]3N4C)c12 [Compound 159B]	307 nM						5.4 nM	
C#Cc1c(F)ccc2cc(N)cc(-c3nc4c5c(nc(OCC67CCCN6CC(F)C7)nc5c3F)N3C(C#N)CCCCC3N4C)c12 (stereo not drawn) [Compound 168B]			> 1000 nM	> 1000 nM	503 nM	631 nM		
C#Cc1c(F)ccc2cc(N)cc(-c3nc4c5c(nc(OC[C@]67CC(=C)CN6C[C@@H](F)C7)nc5c3F)N3CCCOC[C@H]3N4C)c12 [Compound 171]		43.7 nM					2.54 nM	

— patent publication US20260200947A1, “FUSED CYCLIC COMPOUNDS AND USE THEREOF” (Jacobio Pharmaceuticals Co., Ltd., priority 2022, published 2026)
